From ChEMBL document CHEMBL4513160, “CO-ADD screening of MMV (CH) - Small Polar Library”
In brackets after ≈: the same amount, converted by molar mass.

Key:
Pseudomonas aeruginosa [1] = assay: microbe, parasite or virus in culture; conditions: ATCC 27853, 18 h, ASSAY_TEST Inhibition of Bacterial Growth, detection method Absorption (OD600), MEDIA CAMHB, plate type 384well, NBS, CORNING #3640
Description: Antibacterial activity against Pseudomonas aeruginosa ATCC 27853 (CO-ADD:GN_042); MIC in CAMBH media using NBS plates, by OD(600)

Pseudomonas aeruginosa [2] = assay: Antibacterial activity against Pseudomonas aeruginosa PAO397 [PAO1 d(mexAB-oprM) d(mexCD-oprJ) d(mexEF-oprN) d(mexJKL) d(mexXY) d(opmH)] (CO-ADD:GN_211); MIC in CAMBH media using NBS plates, by OD(600); type: functional; conditions: ASSAY_TEST Inhibition of Bacterial Growth, detection method Absorption (OD600), MEDIA CAMHB, plate type 384well, CORNING #3640, time 18 hr
Acinetobacter baumannii = assay: microbe, parasite or virus in culture; conditions: ATCC 19606, 18 h, ASSAY_TEST Inhibition of Bacterial Growth, detection method Absorption (OD600), MEDIA CAMHB, plate type 384well, NBS, CORNING #3640
Description: Antibacterial activity against Acinetobacter baumannii ATCC 19606 (CO-ADD:GN_034); MIC in CAMBH media using NBS plates, by OD600

SMILES	MIC (Pseudomonas aeruginosa [1])	MIC (Pseudomonas aeruginosa [2])	MIC (Acinetobacter baumannii)
CCC1Oc2c(Cl)cccc2NC1=O (configuration not stated)	> 300 µM	> 300 µM	> 300 µM
OCCCN(CCO)Cc1c(Cl)ccc2cccnc12	> 300 µM	> 300 µM	> 300 µM
CCCn1cnnc1CNC	> 300 µM	> 300 µM	> 300 µM
CC(Sc1n[nH]c(-c2ccccn2)n1)C(=O)N(C)C (configuration not stated)	> 300 µM	> 300 µM	> 300 µM
COc1cccc2c(N)c(C)cnc12	> 300 µM	> 300 µM	> 300 µM
Cc1cscc1C(=O)Nc1ncnn1C	> 300 µM	> 300 µM	> 300 µM
NCCNS(=O)(=O)c1ccc(F)c(C(F)(F)F)c1	> 300 µM	> 300 µM	> 300 µM
Cn1cc(NC(=O)c2ccc(Br)s2)cc1C(N)=O	> 300 µM	> 300 µM	> 300 µM
Cc1cc(Br)cc(C(=O)NCc2nccc(N)n2)c1	> 300 µM	> 300 µM	> 300 µM
Cc1cc(N2CCN(CCO)CC2)nc2ccccc12	> 300 µM	> 300 µM	> 300 µM
OCC(O)CNc1ccnc2ccc(Br)cc12 (configuration not stated)	> 300 µM	> 300 µM	> 300 µM
COc1ccc2c(c1)CCCC(=O)N2	> 300 µM	> 300 µM	> 300 µM
Cc1cc(NC(C)CO)nc2ccccc12 (configuration not stated)	> 300 µM	> 300 µM	> 300 µM
O=C(NCCO)Nc1cc(F)ccc1N1CCCCC1	> 300 µM	300 µM (≈ 84.4 µg/mL)	> 300 µM
NCC(CO)Cc1ccc(Br)cc1 (configuration not stated)	> 300 µM	> 300 µM	> 300 µM
O=C(CSCCO)Nc1ncc(-c2ccccc2)s1	> 300 µM	200 µM (≈ 58.9 µg/mL)	> 300 µM
CN(C)CCC(=O)c1ccc(F)cc1	> 300 µM	> 300 µM	> 300 µM
COc1c(C(=O)N2CCOCC2)sc2ccc(F)cc12	> 300 µM	> 300 µM	> 300 µM
C[C@@H](N)C(=O)NCc1cc2cc(Cl)ccc2[nH]1	> 300 µM	300 µM (≈ 75.5 µg/mL)	> 300 µM
NCCNS(=O)(=O)c1ccc(-c2ccccc2)cc1	> 300 µM	> 300 µM	> 300 µM
Cn1ccc(C(=O)Nc2ccc(Br)cn2)n1	> 300 µM	> 300 µM	> 300 µM

SMILES	MIC (Pseudomonas aeruginosa [1])	MIC (Pseudomonas aeruginosa [2])	MIC (Acinetobacter baumannii)
Cn1c(CN)nc2cc(Cl)ccc21	> 300 µM	> 300 µM	> 300 µM
CN(C)C(=O)CCNc1ccnc2ccc(Cl)cc12	> 300 µM	> 300 µM	> 300 µM
O=C(NCc1cccs1)c1cnsn1	> 300 µM	> 300 µM	> 300 µM
NCc1nc(-c2ccc(Cl)cc2)c[nH]1	> 300 µM	> 300 µM	> 300 µM
CC[C@H](CO)Nc1ccnc2cc(Br)cnc12	> 300 µM	> 300 µM	> 300 µM
N#Cc1nnc(-c2ccccc2)o1	> 300 µM	> 300 µM	> 300 µM
NCc1cnn(-c2cccc(Cl)c2)c1	> 300 µM	> 300 µM	> 300 µM
CN(C)C(=O)Nc1cc(F)cc(F)c1	> 300 µM	> 300 µM	> 300 µM
CC(CO)NC(=O)Nc1nc(-c2ccccc2)ns1 (configuration not stated)	> 300 µM	200 µM (≈ 55.7 µg/mL)	> 300 µM
Fc1cccnc1OC1CCNCC1	> 300 µM	> 300 µM	> 300 µM
NCCNC(=O)c1ccc(-c2ccc(Cl)cc2)s1	300 µM (≈ 84.2 µg/mL)	90 µM (≈ 25.3 µg/mL)	> 300 µM
NC1CCN(c2ccccc2F)CC1	> 300 µM	> 300 µM	> 300 µM
CC(O)CN1C(=O)C=CC1=O (configuration not stated)	> 300 µM	> 300 µM	> 300 µM
OCCNCCNCc1ccc(-c2ccccc2F)o1	> 300 µM	> 300 µM	> 300 µM
Cc1ccc(OC(C)CN)cc1 (configuration not stated)	> 300 µM	> 300 µM	> 300 µM
CC(C)NC(=O)NCC1(N2CCOCC2)CCSC1 (configuration not stated)	> 300 µM	> 300 µM	> 300 µM
O=S1(=O)CCC(CNc2ccnc3ccc(Cl)cc23)C1 (configuration not stated)	> 300 µM	> 300 µM	> 300 µM
NC(=O)CSc1nnc(-c2cc(Br)ccc2O)[nH]1	> 300 µM	> 300 µM	> 300 µM
OCCNCCNCc1ccc(-c2cccc(Cl)c2)o1	> 300 µM	> 300 µM	> 300 µM
NC1CSCc2c(F)cccc21 (configuration not stated)	> 300 µM	> 300 µM	> 300 µM
COc1ccc(F)c(N2CCNCC2)c1	> 300 µM	> 300 µM	> 300 µM

SMILES	MIC (Pseudomonas aeruginosa [1])	MIC (Pseudomonas aeruginosa [2])	MIC (Acinetobacter baumannii)
Cc1cc(C(=O)NC2CCC(=O)NC2)cc(Cl)c1Br (configuration not stated)	> 300 µM	> 300 µM	> 300 µM
COc1cccc(-c2ncc(CN)s2)c1	> 300 µM	> 300 µM	> 300 µM
FC(F)Oc1cccc(N2CCNCC2)c1	> 300 µM	> 300 µM	> 300 µM
NCCS(=O)(=O)N1CCCc2ccccc21	> 300 µM	> 300 µM	> 300 µM
CCOc1ccc(Cl)cc1CCNS(=O)(=O)N(C)C	> 300 µM	> 300 µM	> 300 µM
CCc1cccc2c1OCCC2N (configuration not stated)	> 300 µM	> 300 µM	> 300 µM
CN1CCCC1CCSc1nc(N)c(C#N)cc1C#N (configuration not stated)	> 300 µM	> 300 µM	> 300 µM
CCCOc1ccc(NS(=O)(=O)N(C)C)cc1Cl	> 300 µM	> 300 µM	> 300 µM
Cc1ccc2c(N)noc2n1	135 µM (≈ 20.1 µg/mL)	135 µM (≈ 20.1 µg/mL)	> 300 µM
Brc1ccc2c(c1)OCCNC2	> 300 µM	> 300 µM	> 300 µM
c1cn2c(n1)COCC2	> 300 µM	> 300 µM	> 300 µM
CC(C)CNC(=O)CSc1n[nH]c(-c2ccccn2)n1	> 300 µM	60 µM (≈ 17.5 µg/mL)	> 300 µM
NCC1CCN(CCc2ccccc2)C1 (configuration not stated)	> 300 µM	> 300 µM	> 300 µM
CNCC(=O)NC(C)c1nc(-c2ccc(Br)cc2)no1 (configuration not stated)	> 300 µM	> 300 µM	> 300 µM
Cc1c(C(=O)NC2=NCCS2)oc2ccccc12	> 300 µM	> 300 µM	> 300 µM
Cc1cccc(NC(C)c2ccc(S(N)(=O)=O)cc2)n1 (configuration not stated)	> 300 µM	> 300 µM	> 300 µM
O=C1NC(Cc2ccccc2)C(=O)Nc2ccccc21 (configuration not stated)	> 300 µM	> 300 µM	> 300 µM
CN(Cc1ccc(Cl)cc1)C(=O)C1CCNC1 (configuration not stated)	> 300 µM	> 300 µM	> 300 µM
CC(C)(N)CN1CCN(c2cccc(Cl)c2)CC1	> 300 µM	> 300 µM	> 300 µM
COC(CN)CC(C)C (configuration not stated)	> 300 µM	> 300 µM	> 300 µM
CC(=O)c1ccc(NC(=O)CCc2cccs2)nc1	> 300 µM	> 300 µM	> 300 µM

SMILES	MIC (Pseudomonas aeruginosa [1])	MIC (Pseudomonas aeruginosa [2])	MIC (Acinetobacter baumannii)
CCc1c(C)nc2sc(C(N)=O)c(N)c2c1C	> 300 µM	> 300 µM	> 300 µM
NCCC(=O)N1CCCC(CCc2ccc(F)cc2)C1 (configuration not stated)	> 300 µM	> 300 µM	> 300 µM
CNC(=O)CCCNC(=O)Nc1nc2ccccc2s1	> 300 µM	> 300 µM	> 300 µM
Nc1nc(-c2ccc3c(c2)CCCC(=O)N3)cs1	> 300 µM	> 300 µM	> 300 µM
Cc1ccncc1NC1CS(=O)(=O)c2ccccc21 (configuration not stated)	> 300 µM	> 300 µM	> 300 µM
Cc1ccc(C(=O)N2CCN(c3nccs3)CC2)o1	> 300 µM	> 300 µM	> 300 µM
O=C(Nc1ccncc1)c1coc(Br)c1	> 300 µM	> 300 µM	> 300 µM
CC(Nc1ccc(C#N)cn1)c1ccc2c(c1)OCO2 (configuration not stated)	> 300 µM	> 300 µM	> 300 µM
Cc1cc(C)c(C#N)c(N2C[C@H](C3CC3)[C@@H](N)C2)n1	> 300 µM	> 300 µM	> 300 µM
COCCOc1ccc(CNC(=O)c2ccoc2)cn1	60 µM (≈ 16.6 µg/mL)	> 300 µM	> 300 µM
c1ccc(N2CCN(c3ncccn3)CC2)nc1	> 300 µM	> 300 µM	> 300 µM
COc1cccc(CNCc2ccccn2)c1	> 300 µM	> 300 µM	> 300 µM
CSC(C)(C)COC(=O)c1ccc(-n2ccnc2)nc1	> 300 µM	> 300 µM	> 300 µM
CS(=O)(=O)N1CCSc2ccc(Cl)cc21	> 300 µM	> 300 µM	> 300 µM
NCCc1cccc2cc[nH]c12	> 300 µM	> 300 µM	> 300 µM
CN(C)c1ccc(-c2[nH][nH]c(=O)c2CCN)cc1	> 300 µM	> 300 µM	> 300 µM
CCC(C)(C)NC(=O)c1nnn(-c2ccccc2)c1C	> 300 µM	> 300 µM	> 300 µM
Cn1ncnc1NC(=O)c1ccc(C#N)cc1	200 µM (≈ 45.4 µg/mL)	200 µM (≈ 45.4 µg/mL)	> 300 µM
CC(C)(N)C(O)c1ccc(Br)cc1 (configuration not stated)	> 300 µM	> 300 µM	> 300 µM
Ic1nnnn1-c1ccccc1	60 µM (≈ 16.3 µg/mL)	25 µM (≈ 6.8 µg/mL)	> 300 µM
CC(C)CCC(=O)N[C@@H]1CN(C)C[C@H]1CN(C)C	> 300 µM	> 300 µM	> 300 µM
